ChEMBL document CHEMBL1201862, “PubChem BioAssay data set” (2004)
Several values for one entry are separate records, joined by “and”; a condition that tells them apart may be missing. Identical values can stand only once.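 Step 1: Grow cells in 96-well plates. Step 2: Expose to compound for 48 hours at 5 concentrations. Step 3: Interpolate endpoints linearly; if unreached, use highest concentration. GI50 is the concentration that inhibits growth by half.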 Activity calls are given as the source filed them. Rule as the data show it: active = GI50 up to about 1.1 µM and inactive = higher.

Experiments:
Assay in all cases: NCI-60 cell line screen, 48 h
COLO 205 = system: COLO 205
SK-MEL-5 = system: SK-MEL-5
OVCAR-8 = system: OVCAR-8
SK-MEL-28 = system: SK-MEL-28
TK-10 = system: TK-10
IGROV-1 = system: IGROV-1
HCC 2998 = system: HCC 2998
RPMI-8226 = system: RPMI-8226
T47D = system: T47D
HL-60 = system: HL-60
DU-145 = system: DU-145
SK-OV-3 = system: SK-OV-3
HCT-116 = system: HCT-116
Malme-3M = system: Malme-3M
LOX IMVI = system: LOX IMVI
NCI-H522 = system: NCI-H522
SN12C = system: SN12C
HOP-92 = system: HOP-92
PC-3 = system: PC-3
Hs-578T = system: Hs-578T

SMILES | GI50 (COLO 205) | GI50 (SK-MEL-5) | GI50 (OVCAR-8) | GI50 (SK-MEL-28) | GI50 (TK-10) | GI50 (IGROV-1) | GI50 (HCC 2998) | GI50 (RPMI-8226) | GI50 (T47D) | GI50 (HL-60) | GI50 (DU-145) | GI50 (SK-OV-3) | GI50 (HCT-116) | GI50 (Malme-3M) | GI50 (LOX IMVI) | GI50 (NCI-H522) | GI50 (SN12C) | GI50 (HOP-92) | GI50 (PC-3) | GI50 (Hs-578T)
Cc1nc(Nc2ccc(Cl)c(Cl)c2)sc1C(=O)/C=C/c1ccc2c(c1)OCO2 | 24.7 µM (inactive) | 33.4 µM (inactive) | 23.2 µM (inactive) | 31.7 µM (inactive) | 24.5 µM (inactive) | 38.6 µM (inactive) | 30.2 µM (inactive) | 17.1 µM (inactive) | 42.5 µM (inactive) | 18.9 µM (inactive) | > 10 µM (inactive) | 18.7 µM (inactive) | 20.6 µM (inactive) | 31.9 µM (inactive) | 19.4 µM (inactive) | – | – | – | – | –
COC(=O)C(/C(=N\O)C(=O)Nc1ccc(Br)cc1)c1nc2ccccc2nc1O (configuration not stated) | 18.5 µM (inactive) | 28.6 µM (inactive) | > 100 µM (inactive) | 36.7 µM (inactive) | > 10 µM (inactive) | 19 µM (inactive) | 92 µM (inactive) | 26.9 µM (inactive) | – | 21.8 µM (inactive) | – | > 100 µM (inactive) | 55.8 µM (inactive) | 45.1 µM (inactive) | 22.7 µM (inactive) | 17.1 µM (inactive) | 35.8 µM (inactive) | 35.4 µM (inactive) | – | –
Cc1ccc(S(=O)OCc2c(C)c(C)c(COS(=O)c3ccc(C)cc3)c(C)c2C)cc1 (configuration not stated) | > 100 µM (inactive) | > 100 µM (inactive) | > 100 µM (inactive) | > 100 µM (inactive) | > 100 µM (inactive) | > 100 µM (inactive) | > 100 µM (inactive) | > 100 µM (inactive) | – | > 100 µM (inactive) | – | > 100 µM (inactive) | > 100 µM (inactive) | > 100 µM (inactive) | > 100 µM (inactive) | > 100 µM (inactive) | > 100 µM (inactive) | > 100 µM (inactive) | – | –
CC(=O)OCC(OC(C)=O)C(OC(C)=O)C(/C=N\Nc1nc2ccccc2c(=O)[nH]1)OC(C)=O (configuration not stated) | > 100 µM (inactive) | > 100 µM (inactive) | > 100 µM (inactive) | > 100 µM (inactive) | > 100 µM (inactive) | 26.1 µM (inactive) and 43.5 µM (inactive) | – | 91.8 µM (inactive) | > 100 µM (inactive) | 67.9 µM (inactive) and 85.9 µM (inactive) | > 100 µM (inactive) | > 100 µM (inactive) | > 100 µM (inactive) | – | > 100 µM (inactive) | – | > 100 µM (inactive) | > 100 µM (inactive) | > 100 µM (inactive) | –
CCOC(=O)CN1C(=O)C(=O)N(c2ccc(OC)c3ccccc23)C1=O | > 100 µM (inactive) | > 100 µM (inactive) | > 100 µM (inactive) | > 100 µM (inactive) | > 100 µM (inactive) | – | > 100 µM (inactive) | > 100 µM (inactive) | > 100 µM (inactive) | > 100 µM (inactive) | > 100 µM (inactive) | > 100 µM (inactive) | > 100 µM (inactive) | > 100 µM (inactive) | > 100 µM (inactive) | > 100 µM (inactive) | > 100 µM (inactive) | – | > 100 µM (inactive) | –
Cc1cs/c(=N/c2ccccc2)n1CCC(O)(P(=O)(O)O)P(=O)(O)O | > 100 µM (inactive) | 71.6 µM (inactive) | > 100 µM (inactive) | – | > 100 µM (inactive) | > 100 µM (inactive) | > 100 µM (inactive) | – | – | – | > 100 µM (inactive) | > 100 µM (inactive) | > 100 µM (inactive) | > 100 µM (inactive) | > 100 µM (inactive) | > 100 µM (inactive) | – | – | > 100 µM (inactive) | > 100 µM (inactive)
C/C(O[Si](C(C)C)(C(C)C)C(C)C)=C(\C)C(=O)N(C)c1ccccc1Cl | > 100 µM (inactive) | > 100 µM (inactive) | > 100 µM (inactive) | > 100 µM (inactive) | > 100 µM (inactive) | > 100 µM (inactive) | – | > 100 µM (inactive) | > 100 µM (inactive) | – | > 100 µM (inactive) | – | > 100 µM (inactive) | > 100 µM (inactive) | > 100 µM (inactive) | 73.8 µM (inactive) | > 100 µM (inactive) | > 100 µM (inactive) | – | –
CCN1c2nc3ccccc3nc2N(CC)c2nc3ccccc3nc21 | 82.2 µM (inactive) | 41.2 µM (inactive) | 60.1 µM (inactive) | 46.5 µM (inactive) | 52.6 µM (inactive) | 23.2 µM (inactive) | 50.5 µM (inactive) | 34.5 µM (inactive) | – | 34.7 µM (inactive) | 65.8 µM (inactive) | > 100 µM (inactive) | 26.9 µM (inactive) | 70.8 µM (inactive) | > 100 µM (inactive) | 49.5 µM (inactive) | 47.1 µM (inactive) | – | 61.5 µM (inactive) | 71.4 µM (inactive)
COc1cc(OC)c2c(=O)c3c([N+](=O)[O-])cccc3n(C)c2c1 | > 100 µM (inactive) | > 100 µM (inactive) | > 100 µM (inactive) | > 100 µM (inactive) | > 100 µM (inactive) | > 100 µM (inactive) | > 100 µM (inactive) | > 100 µM (inactive) | – | > 100 µM (inactive) | – | > 100 µM (inactive) | > 100 µM (inactive) | > 100 µM (inactive) | > 100 µM (inactive) | > 100 µM (inactive) | > 100 µM (inactive) | > 100 µM (inactive) | – | –
COc1cc(OCc2ccccc2)c2c(CCC(=O)O)cc(=O)oc2c1.COc1cc(OCc2ccccc2)cc2oc(=O)cc(CCC(=O)O)c12 | 67.3 µM (inactive) | 70.6 µM (inactive) | 37 µM (inactive) | 42.3 µM (inactive) | 31.6 µM (inactive) | 51.2 µM (inactive) | 56.5 µM (inactive) | 57.3 µM (inactive) | – | 34.1 µM (inactive) | 64.6 µM (inactive) | 82.4 µM (inactive) | 54 µM (inactive) | > 100 µM (inactive) | 20.9 µM (inactive) | 42.5 µM (inactive) | – | 32 µM (inactive) | 56.8 µM (inactive) | 50.6 µM (inactive)
CCCCCCCCCCCCC(O)[C@H]1CC[C@H](C(O)CCCCCC(=O)CCCCC2CC(C(C)=O)C(=O)O2)O1 (some centres not stated) | 6.3 µM (inactive) | 0.802 µM (active) | 8.97 µM (inactive) | 16.9 µM (inactive) | 14.1 µM (inactive) | 11 µM (inactive) | 16.2 µM (inactive) | 1.65 µM (inactive) | – | 2.12 µM (inactive) | > 43.6 µM (inactive) | 9.68 µM (inactive) | 1.02 µM (active) | 11.5 µM (inactive) | 2.08 µM (inactive) | 3.94 µM (inactive) | 7.24 µM (inactive) | 10.4 µM (inactive) | 4.95 µM (inactive) | 15.4 µM (inactive)
CC(C)(C)CNCCCNc1ccc(Cl)cc1 | 21 µM (inactive) | – | > 100 µM (inactive) | 20.9 µM (inactive) | 19.7 µM (inactive) | 58.1 µM (inactive) | – | 21.2 µM (inactive) | – | < 0.01 µM (active) | > 100 µM (inactive) | > 100 µM (inactive) | 55.1 µM (inactive) | 22 µM (inactive) | 25.3 µM (inactive) | 24.1 µM (inactive) | 28.7 µM (inactive) | 13.6 µM (inactive) | 51.3 µM (inactive) | 40.1 µM (inactive)
CCOP(=O)(OCC)C(c1ccccc1)N(C(=O)NC(F)(F)F)c1cccc(F)c1 (configuration not stated) | > 100 µM (inactive) | > 100 µM (inactive) | > 100 µM (inactive) | > 100 µM (inactive) | > 100 µM (inactive) | 6.93 µM (inactive) | 55.8 µM (inactive) | 83.2 µM (inactive) | – | > 100 µM (inactive) | > 100 µM (inactive) | – | > 100 µM (inactive) | > 100 µM (inactive) | > 100 µM (inactive) | > 100 µM (inactive) | > 100 µM (inactive) | – | 45.8 µM (inactive) | 78.3 µM (inactive)
O=S1(=O)OCCOS(=O)(=O)C1S(=O)(=O)c1ccc2ccccc2c1 | > 100 µM (inactive) | > 100 µM (inactive) | > 100 µM (inactive) | > 100 µM (inactive) | > 100 µM (inactive) | > 100 µM (inactive) | > 100 µM (inactive) | > 100 µM (inactive) | – | > 100 µM (inactive) | > 100 µM (inactive) | – | > 100 µM (inactive) | > 100 µM (inactive) | > 100 µM (inactive) | – | > 100 µM (inactive) | > 100 µM (inactive) | > 100 µM (inactive) | –
Oc1ccc(-c2nc3cc(F)ccc3s2)cc1 | 18.6 µM (inactive) | 19.5 µM (inactive) | 31.6 µM (inactive) | 21.6 µM (inactive) | 34.1 µM (inactive) | 17.5 µM (inactive) | 13.5 µM (inactive) | 24 µM (inactive) | 5.22 µM (inactive) | 21.7 µM (inactive) | 21.8 µM (inactive) | 25.7 µM (inactive) | 17.5 µM (inactive) | 16.5 µM (inactive) | 17.9 µM (inactive) | 15.3 µM (inactive) | 22.2 µM (inactive) | 21.3 µM (inactive) | 22.9 µM (inactive) | –
CCOC(=O)Nc1cc2c(c(N)n1)N=C(c1ccccc1)[C@H](C)N2 [MIVOBULIN ISETHIONATE] | < 0.0001 µM (active) | < 0.0001 µM (active) | < 0.0001 µM (active) | – | 0.00273 µM (active) | < 0.0001 µM (active) | < 0.0001 µM (active) | 0.000215 µM (active) | – | < 0.0001 µM (active) | < 0.0001 µM (active) | 17.4 µM (inactive) | < 0.0001 µM (active) | < 0.0001 µM (active) | < 0.0001 µM (active) | < 0.0001 µM (active) | 0.0475 µM (active) | 0.01 µM (active) | < 0.0001 µM (active) | < 0.0001 µM (active)
